Data reported in US7083933B1, “Methods for identification of modulators of OSGPR116 activity” (Prosidion Limited, priority 2003, dated 2006).

Tests used:
[1] = molecular target: T1, mouse homolog of OSGPR116 (Mus musculus, UniProt Q7TQP3); assay: Yeast cell-based Fus1p-LacZ reporter assay, mouse OSGPR116; settings: mouse isoform, FIG. 9b; Galpha-q5 yeast, 4h incubation
T1 construct: expressed in transfected cells; host or cells: engineered yeast (GPA1 and Ste3 deleted, G-alpha chimera, Fus1p-LacZ reporters)
T1 sequence (Q7TQP3 1-335): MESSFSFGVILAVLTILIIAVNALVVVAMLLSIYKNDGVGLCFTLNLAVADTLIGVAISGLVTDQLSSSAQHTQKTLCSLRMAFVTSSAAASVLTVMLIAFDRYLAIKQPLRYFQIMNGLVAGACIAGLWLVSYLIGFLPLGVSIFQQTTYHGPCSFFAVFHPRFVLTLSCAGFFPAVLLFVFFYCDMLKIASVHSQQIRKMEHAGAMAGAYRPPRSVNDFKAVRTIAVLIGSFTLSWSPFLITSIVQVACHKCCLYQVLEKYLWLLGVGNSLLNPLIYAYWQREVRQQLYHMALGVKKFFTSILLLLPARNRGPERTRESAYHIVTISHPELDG
From the text: (§1) The yeast cell-based reporter assays have previously been described in the literature (e.g. see Miret J. J., et. al. (2002) J. Biol. Chem. 277:6881–6887; Campbell R. M., et. al. (1999) Bioorg Med. Chem. Lett. 9:2413–2418; King K., et. al. (1990) Science. 250:121–123); WO 99/14344; WO 00/12704; and U.S. Pat. No. 6,100,042). Briefly, yeast cells have been engineered such that the endogenous yeast G-alpha (GPA1) has been deleted and replaced with G-protein chimeras constructed using multiple techniques. Additionally the endogenous yeast alpha-cell GPCR, Ste3 has been deleted to allow for a […] expression of a mammalian GPCR of choice. In the yeast, elements of the pheromone signaling transduction pathway, which are conserved in eukaryotic cells (for example, the mitogen-activated protein kinase pathway), drive the expression of Fus1. By placing β-galactosidase (LacZ) under the control of the Fus1 promoter (Fus1p), a system has been developed whereby receptor activation leads to an enzymatic read-out. Different yeast strains (e.g. FIG. 10) denote the presence of different G-alpha chimeras (see “yeast reporter assays” in Results section below for definitions).
(§2) Yeast cells are transformed by an adaptation of the Lithium acetate method described by Agatep et.al. (Agatep, R., et. al. (1998) Transformation of Saccharomyces cerevisiae by the lithium acetate/single-stranded carrier DNA/polyethylene glycol (LiAc/ss-DNA/PEG) protocol. Technical Tips Online, Trends Journals, Elsevier). Briefly, yeast cells are grown overnight on yeast tryptone plates (YT). Carrier single-stranded DNA (10 μg), 2 μg of each of two Fus1p-LacZ reporter plasmids (one with URA selection marker and one with TRP), 2 μg of OSGPR116 in yeast expression vector (2μ origin of replication) and a lithium acetate/polyethylene glycol/TE buffer is pipetted into an Epindorf tube. The yeast expression plasmid containing the receptor/no receptor control has a LEU marker. Yeast cells are inoculated into this mixture and the reaction proceeds at 30° C. for 60 minutes. The yeast cells are then heat-shocked at 42° C. for 15 minutes. The cells are then washed and spread on selection plates. The selection plates are synthetic defined yeast media minus LEU, URA and TRP (SD-LUT). After incubating at 30° C. for 2–3 days, colonies that grow on the selection plates are then tested in the LacZ assay.
(§3) In order to perform fluorometric enzyme assays for β-galactosidase, yeast cells were grown overnight in liquid SD-LUT media to an unsaturated concentration (i.e. the cells are still dividing and have not yet reached stationary phase). They are diluted in fresh media to an optimal assay concentration and 90 μL of yeast cells were added to 96-well black polystyrene plates (Costar). Compounds, dissolved in ethanol and diluted in a 1% BSA solution to 10× concentration, were added to the plates and the yeast are placed at 30° C. for 4h. After 4h, the substrate for the β-galactosidase is added to each well. The substrate may yield a fluorescent or calorimetric read-out upon the activity of the β-galactosidase. In these experiments, Fluorescein di (β-D-galactopyranoside) was used (FDG), a substrate for the enzyme that releases fluorescein, allowing a fluorometric read-out. 20 μL of 500 uM FDG was used. After incubation of the cells with the substrate for 30–60 mins, 20 μL of 1M sodium carbonate is added to terminate the reaction and enhance the fluorescent signal. The plates were then read in a fluorometer at 485/535 nm. As an alternate read-out system, the yeast are also engineered with a Fus1p-HIS gene which means that activation of the receptor can also be measured through the growth of the yeast in a […] deficient media.

[2] = system: vector transformed yeast cells; assay: Yeast reporter assay, vector transformed (no receptor) control yeast; assay type: cell-based; settings: yeast without OSGPR116 expression, FIGS. 9a, 9b
From the text: as §1, §2, §3

OSGPR116 [3] = molecular target: T2, OSGPR116 (Homo sapiens, UniProt Q8TDV5); assay: Yeast cell-based Fus1p-LacZ reporter assay, human OSGPR116; design: expressed in transfected cells; host or cells: engineered yeast (GPA1 and Ste3 deleted, G-alpha chimera, Fus1p-LacZ reporters); settings: human isoform, FIG. 9a; Galpha-q5 yeast, 4h incubation
T2 sequence (Q8TDV5 1-335): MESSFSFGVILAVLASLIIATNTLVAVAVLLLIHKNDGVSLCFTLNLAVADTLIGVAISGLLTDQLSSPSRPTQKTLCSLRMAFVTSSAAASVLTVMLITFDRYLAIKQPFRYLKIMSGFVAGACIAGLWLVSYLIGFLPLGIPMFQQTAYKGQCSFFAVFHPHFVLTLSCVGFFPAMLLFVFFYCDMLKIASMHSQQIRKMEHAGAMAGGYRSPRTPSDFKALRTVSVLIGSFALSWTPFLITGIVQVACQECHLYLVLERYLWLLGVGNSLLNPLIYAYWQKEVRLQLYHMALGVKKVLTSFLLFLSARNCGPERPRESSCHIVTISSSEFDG
From the text: as §1, §2, §3

OSGPR116 [4] = molecular target: T2, OSGPR116; design: expressed in transfected cells; host or cells: yeast strains 13397, 13393, 15070, 18043, 20202, 10151 with different G-alpha chimeras; settings: as described in earlier U.S. patents; cited from earlier work
OSGPR116 [5] = molecular target: T2, OSGPR116; assay: Cre-SEAP assay in HEK-293-Galpha16 cells transfected with OSGPR116 or empty vector; assay type: cell-based; design: expressed in transfected cells; host or cells: HEK-293-Galpha16 cells stably expressing cre-SEAP, transient transfection with lipofectamine; settings: OSGPR116 and empty vector transfected cells, 7h, FIG. 12
Protocol: HEK-293—Galpha16 cells stably expressing the cre-SEAP (secreted alkaline phosphatase) reporter construct, and transiently transfected with either the OSGPR116 vector or empty vector control, were grown to between ˜0.5×10^6 and 1×10^7 cells/dish and seeded at 4×10^4 cells/well on poly-D-lysine coated clear-bottom 96-well tissue culture plates. The cells were left to adhere to the plates in media for 24h at 37° C. The media was aspirated and the cells arrested by serum starvation for a further 24h in 200 ul of colorless DMEM.
After serum arrest, the starvation media was aspirated and 90 ul fresh colorless DMEM containing 0.1% BSA was added. 10 ul of 10× compound (or DMSO/H20 control) was added and the plates incubated at 37° C. for 7h. Conditioned media (12.5 ul) was then transferred to a 96 well white flat-bottom plate. Next, 37.5 μl of 1× Tropix Dilution Buffer was added to the transferred culture media. 50 μl of Tropix Assay Buffer was also added. The plate was then incubated at room temperature for 5 minutes. Finally, 50 μl Tropix Reaction Buffer Diluent containing a 1:20 dilution of the CSPD Chemiluminescent Substrate was added. The plate was incubated at room temperature for 60 minutes and luminescence measured.

Structure (SMILES)	effect on fluorescence (β-galactosidase activity) in yeast transformed with OSGPR116 receptor [1]	increase in fluorescence in vector transformed cells [2]	effect on fluorescence (β-galactosidase activity) in yeast transformed with OSGPR116 receptor (OSGPR116 [3])	also measured
CCCCCCCC/C=C\CCCCCCCC(N)=O [oleamide]	increase in fluorescence	not	increase in fluorescence	
CC1=C(/C=C/C(C)=C/C=C/C(C)=C/C(=O)O)C(C)(C)CCC1 [ATRA, all-trans-retinoic acid]			no effect	production of cyclic AMP in host cells expressing recombinant receptor (OSGPR116 [4]): stimulate the production of cyclic AMP; luminescence (cre-SEAP, cAMP response element driven secreted alkaline phosphatase) (OSGPR116 [5]): no effect; luminescence (cre-SEAP, cAMP response element driven secreted alkaline phosphatase) (OSGPR116 [5]; listed as all-trans retinoic acid (ATRA)): Lack of effect
CCCCC/C=C\C/C=C\C/C=C\C/C=C\CCCC(=O)N[C@H](C)CO [methanandamide]			no effect	
CCCCCCC(C)(C)c1ccc([C@@H]2C[C@H](O)CC[C@H]2CCCO)c(O)c1 [CP55940]			no effect	
CCCCC/C=C\C/C=C\C/C=C\C/C=C\CCCC(=O)NCCO [anandamide]	increase in fluorescence	not	increase in fluorescence	
CCCCCCCCCCCCCCCCCC(=O)NCCO [stearoyl ethanolamide]	increase in fluorescence	not	increase in fluorescence	
CCCCCCCCCCCCCCCC(=O)NCCO [palmitoyl ethanolamide]	increase in fluorescence	not	increase in fluorescence	
Nc1ncnc2c1ncn2[C@@H]1O[C@H](COP(=O)(O)OP(=O)(O)OP(=O)(O)O)[C@@H](O)[C@H]1O [ATP]				luminescence (cre-SEAP, cAMP response element driven secreted alkaline phosphatase) (OSGPR116 [5]): no effect
CC/C=C\C/C=C\C/C=C\CCCCCCCC(=O)NCCO [linolenoyl ethanolamide]	increase in fluorescence	not	increase in fluorescence	
Cc1c(C(=O)c2cccc3ccccc23)c2cccc3c2n1[C@H](CN1CCOCC1)CO3 [WIN55212-2]			no effect	
CCNC(=O)[C@H]1O[C@@H](n2cnc3c(N)ncnc32)[C@H](O)[C@@H]1O [NECA]				luminescence (cre-SEAP, cAMP response element driven secreted alkaline phosphatase) (OSGPR116 [5]): clear increase
CC/C=C\C/C=C\C/C=C\C/C=C\C/C=C\C/C=C\CCC(=O)NCCO [docosahexaenoic acid ethanolamide]			no effect	
CCCC(C)(C)c1ccc2c(c1)OC(C)(C)[C@@H]1CC=C(C)C[C@@H]21 [JWH-133]			no effect	
